In the supplement of paper PMC11208160:

Experiment: recombinant UMI read abundance after kanamycin selection (control-corrected) (log10(CPM+1)); higher = more efficient recombination; extreme values may be limits of the assay; sequences stand for … in AGTGCAGAGAAAATCGGCCAGTTTTCTCTGCCTGCAGTCCGCATGCCGTGGGACCCCTTGGGTTCTAACCTGTTGCCTAGATTTATGCAGCGGACTGCCTTTCTCCCAAAGTGATAAACCGG…AGGTTGGTTTCACT; site = the 11-nt donor
Summary of the method: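 Each donor and donor-binding-loop pair was tracked by a 12-nt UMI on a plasmid carrying a promoterless kanamycin gene. With a second plasmid supplying a fixed target and T7-inducible IS621 bridge recombinase, the pool was plated in Escherichia coli on IPTG (0.07 mM) plus kanamycin or unselected. Sequencing of recombinant UMIs across the donor–target junction gave counts expressed as log10(CPM+1) after replicate averaging and control-derived scaling.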
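Also: IS621 bridge recombinase in Escherichia coli cells against a fixed T5 target plasmid.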

| Sequence | recombinant UMI read abundance (log10) |
| --- | --- |
| TCATCCTCATGGACCGGTTTTCCCGGTAATCCGTATTTGCA (site TCATACTCTTG) | 0.933 |
| TCATCCTCATGGACCGGTTTTCCCGGTAATCCGTATTTGCA (site TCATCCTCTTG) | 0.741 |
| TCATCCTCATGGACCGGTTTTCCCGGTAATCCGTATTTGCA (site TCATGCTCTTG) | 0.00381 |
| TCATCCTCATGGACCGGTTTTCCCGGTAATCCGTATTTGCA (site TCATTCTCTTG) | 0 |
| TCATCCTCATGGACCGGTTTTCCCGGTAATCCGTATTTGGC (site TCATCCTCTGC) | 0 |
| TCATGCTCATGGACCGGTTTTCCCGGTAATCCGTATTTGCA (site TCATACTCTTG) | 0.466 |
| TCATGCTCATGGACCGGTTTTCCCGGTAATCCGTATTTGCA (site TCATCCTCTTG) | 0 |
| TCATGCTCATGGACCGGTTTTCCCGGTAATCCGTATTTGCA (site TCATGCTCTTG) | 0.764 |
| TCATGCTCATGGACCGGTTTTCCCGGTAATCCGTATTTGCA (site TCATTCTCTTG) | 0 |
| TCCAAATCATGGACCGGTTTTCCCGGTAATCCGTATTTGCC (site TCCAAATCTGG) | 0 |
| TCCAAATCATGGACCGGTTTTCCCGGTAATCCGTATTTGCC (site TCCAACTCTGG) | 0 |
| TCCAAATCATGGACCGGTTTTCCCGGTAATCCGTATTTGCC (site TCCAAGTCTGG) | 0 |
| TCCAAATCATGGACCGGTTTTCCCGGTAATCCGTATTTGCC (site TCCAATTCTGG) | 0 |
| TCCAACGCATGGACCGGTTTTCCCGGTAATCCGTATTTGCG (site TCCAACGCTCG) | 0.0127 |
| TCCAACGCATGGACCGGTTTTCCCGGTAATCCGTATTTGCG (site TCCACCGCTCG) | 0 |
| TCCAACGCATGGACCGGTTTTCCCGGTAATCCGTATTTGCG (site TCCAGCGCTCG) | 0 |
| TCCAACGCATGGACCGGTTTTCCCGGTAATCCGTATTTGCG (site TCCATCGCTCG) | 0.00881 |
| TCCAAGGCATGGACCGGTTTTCCCGGTAATCCGTATTTGTC (site TCCAAGGCTGA) | 0 |
| TCCAATGCATGGACCGGTTTTCCCGGTAATCCGTATTTGCC (site TCCAATACTGG) | 0 |
| TCCAATGCATGGACCGGTTTTCCCGGTAATCCGTATTTGCC (site TCCAATCCTGG) | 0 |
| TCCAATGCATGGACCGGTTTTCCCGGTAATCCGTATTTGCC (site TCCAATGCTGG) | 0 |
| TCCAATGCATGGACCGGTTTTCCCGGTAATCCGTATTTGCC (site TCCAATTCTGG) | 0 |
| TCCAATTCATGGACCGGTTTTCCCGGTAATCCGTATTTGCA (site TCCAATTCTAG) | 0 |

| Sequence | recombinant UMI read abundance (log10) |
| --- | --- |
| TCCAATTCATGGACCGGTTTTCCCGGTAATCCGTATTTGCA (site TCCAATTCTCG) | 0 |
| TCCAATTCATGGACCGGTTTTCCCGGTAATCCGTATTTGCA (site TCCAATTCTGG) | 0 |
| TCCAATTCATGGACCGGTTTTCCCGGTAATCCGTATTTGCA (site TCCAATTCTTG) | 0 |
| TCCAATTCATGGACCGGTTTTCCCGGTAATCCGTATTTGCG (site TCCAATTCTAG) | 0 |
| TCCAATTCATGGACCGGTTTTCCCGGTAATCCGTATTTGCG (site TCCAATTCTCG) | 0 |
| TCCAATTCATGGACCGGTTTTCCCGGTAATCCGTATTTGCG (site TCCAATTCTGG) | 0 |
| TCCAATTCATGGACCGGTTTTCCCGGTAATCCGTATTTGCG (site TCCAATTCTTG) | 0 |
| TCCACCACATGGACCGGTTTTCCCGGTAATCCGTATTTGCG (site TCCACCACTCG) | 0.0102 |
| TCCACCACATGGACCGGTTTTCCCGGTAATCCGTATTTGCG (site TCCACCCCTCG) | 0.0154 |
| TCCACCACATGGACCGGTTTTCCCGGTAATCCGTATTTGCG (site TCCACCGCTCG) | 0 |
| TCCACCACATGGACCGGTTTTCCCGGTAATCCGTATTTGCG (site TCCACCTCTCG) | 0.00608 |
| TCCACCGCATGGACCGGTTTTCCCGGTAATCCGTATTTGCG (site ACCACCGCTCG) | 0.0347 |
| TCCACCGCATGGACCGGTTTTCCCGGTAATCCGTATTTGCG (site CCCACCGCTCG) | 0.0205 |
| TCCACCGCATGGACCGGTTTTCCCGGTAATCCGTATTTGCG (site GCCACCGCTCG) | 0.0147 |
| TCCACCGCATGGACCGGTTTTCCCGGTAATCCGTATTTGCG (site TACACCGCTCG) | 0.0145 |
| TCCACCGCATGGACCGGTTTTCCCGGTAATCCGTATTTGCG (site TCAACCGCTCG) | 0.00833 |
| TCCACCGCATGGACCGGTTTTCCCGGTAATCCGTATTTGCG (site TCCAACGCTCG) | 0 |
| TCCACCGCATGGACCGGTTTTCCCGGTAATCCGTATTTGCG (site TCCACAGCTCG) | 0.00578 |
| TCCACCGCATGGACCGGTTTTCCCGGTAATCCGTATTTGCG (site TCCACCACTCG) | 0.00973 |
| TCCACCGCATGGACCGGTTTTCCCGGTAATCCGTATTTGCG (site TCCACCCCTCG) | 0.0195 |
| TCCACCGCATGGACCGGTTTTCCCGGTAATCCGTATTTGCG (site TCCACCGCTAG) | 0.00776 |
| TCCACCGCATGGACCGGTTTTCCCGGTAATCCGTATTTGCG (site TCCACCGCTCA) | 0.0193 |
| TCCACCGCATGGACCGGTTTTCCCGGTAATCCGTATTTGCG (site TCCACCGCTCC) | 0.0232 |

| Sequence | recombinant UMI read abundance (log10) |
| --- | --- |
| TCCACCGCATGGACCGGTTTTCCCGGTAATCCGTATTTGCG (site TCCACCGCTCG) | 0.0267 |
| TCCACCGCATGGACCGGTTTTCCCGGTAATCCGTATTTGCG (site TCCACCGCTCT) | 0.0151 |
| TCCACCGCATGGACCGGTTTTCCCGGTAATCCGTATTTGCG (site TCCACCGCTGG) | 0 |
| TCCACCGCATGGACCGGTTTTCCCGGTAATCCGTATTTGCG (site TCCACCGCTTG) | 0 |
| TCCACCGCATGGACCGGTTTTCCCGGTAATCCGTATTTGCG (site TCCACCTCTCG) | 0.00739 |
| TCCACCGCATGGACCGGTTTTCCCGGTAATCCGTATTTGCG (site TCCACGGCTCG) | 0 |
| TCCACCGCATGGACCGGTTTTCCCGGTAATCCGTATTTGCG (site TCCACTGCTCG) | 0.0248 |
| TCCACCGCATGGACCGGTTTTCCCGGTAATCCGTATTTGCG (site TCCAGCGCTCG) | 0.0215 |
| TCCACCGCATGGACCGGTTTTCCCGGTAATCCGTATTTGCG (site TCCATCGCTCG) | 0.0351 |
| TCCACCGCATGGACCGGTTTTCCCGGTAATCCGTATTTGCG (site TCCCCCGCTCG) | 0.1 |
| TCCACCGCATGGACCGGTTTTCCCGGTAATCCGTATTTGCG (site TCCGCCGCTCG) | 0.0234 |
| TCCACCGCATGGACCGGTTTTCCCGGTAATCCGTATTTGCG (site TCCTCCGCTCG) | 0.0203 |
| TCCACCGCATGGACCGGTTTTCCCGGTAATCCGTATTTGCG (site TCGACCGCTCG) | 0.023 |
| TCCACCGCATGGACCGGTTTTCCCGGTAATCCGTATTTGCG (site TCTACCGCTCG) | 0.0356 |
| TCCACCGCATGGACCGGTTTTCCCGGTAATCCGTATTTGCG (site TGCACCGCTCG) | 0.0462 |
| TCCACCGCATGGACCGGTTTTCCCGGTAATCCGTATTTGCG (site TTCACCGCTCG) | 0.00717 |
| TCCACCTCATGGACCGGTTTTCCCGGTAATCCGTATTTGCG (site TCCACCACTCG) | 0.00715 |
| TCCACCTCATGGACCGGTTTTCCCGGTAATCCGTATTTGCG (site TCCACCCCTCG) | 0.0186 |
| TCCACCTCATGGACCGGTTTTCCCGGTAATCCGTATTTGCG (site TCCACCGCTCG) | 0.0129 |
| TCCACCTCATGGACCGGTTTTCCCGGTAATCCGTATTTGCG (site TCCACCTCTCG) | 0.0255 |
| TCCACGCCATGGACCGGTTTTCCCGGTAATCCGTATTTGTA (site ACCACGCCTTA) | 0.0141 |
| TCCACGCCATGGACCGGTTTTCCCGGTAATCCGTATTTGTA (site CCCACGCCTTA) | 0.038 |
